In series [1] the target is T1, TrkA (Homo sapiens, UniProt P04629).
T1 construct: purchased Reaction Biology Corp. (contract assay)
Put plainly: Kinase inhibitory activity (33P-ATP filter binding, Reaction Biology Corp.). The conditions noted are these: read-out: The half maximal inhibitory concentration IC50 on the kinases, TrkA. Format: biochemical. Here is the method:
(§1) The mixture was incubated at room temperature for 20 minutes. To the reaction mixture was added a certain concentration of ^33P-ATP to initiate the reaction, and then the mixture was incubated at room temperature for 120 minutes. The radioactivities of the reactants were determined by the method of filter binding. The final kinase activity was expressed as the ratio of the remaining kinase activity in the test sample to the kinase activity in the DMSO control group. The dose-effect curve was fitted by GraphPad software and the IC50 was calculated.

In series [2] the target is T2, TrkA-G595R (Homo sapiens, UniProt P04629, G595R).
T2 construct: purchased Reaction Biology Corp. (contract assay)
T2 sequence (P04629 33-796 G595R): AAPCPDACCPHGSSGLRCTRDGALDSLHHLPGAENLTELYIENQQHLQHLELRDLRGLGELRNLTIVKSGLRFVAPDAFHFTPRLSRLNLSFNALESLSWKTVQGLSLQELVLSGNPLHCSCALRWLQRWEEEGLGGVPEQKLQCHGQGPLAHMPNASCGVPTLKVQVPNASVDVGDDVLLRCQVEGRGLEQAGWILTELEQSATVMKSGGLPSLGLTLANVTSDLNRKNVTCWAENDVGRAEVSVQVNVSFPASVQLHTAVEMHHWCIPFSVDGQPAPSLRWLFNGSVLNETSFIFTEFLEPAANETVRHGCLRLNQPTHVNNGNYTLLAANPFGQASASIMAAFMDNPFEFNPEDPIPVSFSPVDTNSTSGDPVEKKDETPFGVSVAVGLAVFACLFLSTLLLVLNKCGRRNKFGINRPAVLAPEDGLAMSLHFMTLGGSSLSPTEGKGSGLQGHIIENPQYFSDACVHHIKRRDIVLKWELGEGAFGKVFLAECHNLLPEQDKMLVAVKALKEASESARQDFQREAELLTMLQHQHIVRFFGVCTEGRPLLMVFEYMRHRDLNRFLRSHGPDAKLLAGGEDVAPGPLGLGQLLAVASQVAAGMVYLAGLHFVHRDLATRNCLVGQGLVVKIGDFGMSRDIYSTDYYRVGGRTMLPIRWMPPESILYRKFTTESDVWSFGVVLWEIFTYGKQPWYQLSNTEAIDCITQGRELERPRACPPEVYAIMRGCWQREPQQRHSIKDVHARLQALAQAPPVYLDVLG
The series is described as above. Format: biochemical. Particulars: read-out: The half maximal inhibitory concentration IC50 on the kinases, TrkA-G595R. The method, then:
as §1

The target in series [3] is T3, TrkC (Homo sapiens, UniProt Q16288).
T3 construct: purchased Reaction Biology Corp. (contract assay)
T3 sequence (Q16288 32-839): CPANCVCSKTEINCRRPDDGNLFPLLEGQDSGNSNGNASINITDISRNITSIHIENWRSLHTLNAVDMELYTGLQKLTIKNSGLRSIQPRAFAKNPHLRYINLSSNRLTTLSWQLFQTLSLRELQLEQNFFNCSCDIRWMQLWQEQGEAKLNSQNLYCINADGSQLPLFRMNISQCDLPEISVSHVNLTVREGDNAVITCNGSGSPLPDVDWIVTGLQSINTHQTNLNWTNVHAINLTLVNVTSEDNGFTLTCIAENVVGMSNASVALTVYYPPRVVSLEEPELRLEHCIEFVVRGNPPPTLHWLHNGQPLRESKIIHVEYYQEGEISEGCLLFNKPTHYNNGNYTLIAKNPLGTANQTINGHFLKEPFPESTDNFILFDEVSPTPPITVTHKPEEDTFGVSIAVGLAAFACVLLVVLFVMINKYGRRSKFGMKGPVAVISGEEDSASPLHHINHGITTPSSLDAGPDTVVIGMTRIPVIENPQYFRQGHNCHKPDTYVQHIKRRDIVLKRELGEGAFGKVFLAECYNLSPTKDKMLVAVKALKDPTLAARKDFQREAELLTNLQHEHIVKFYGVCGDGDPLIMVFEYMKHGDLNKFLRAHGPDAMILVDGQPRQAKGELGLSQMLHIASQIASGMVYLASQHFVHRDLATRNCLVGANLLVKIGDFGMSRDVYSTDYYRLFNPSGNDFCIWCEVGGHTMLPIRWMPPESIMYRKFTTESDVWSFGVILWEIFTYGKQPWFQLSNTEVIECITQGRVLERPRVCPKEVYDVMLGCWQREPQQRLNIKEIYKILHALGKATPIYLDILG
The description is as above. The conditions noted are these: read-out: The half maximal inhibitory concentration IC50 on the kinases, TrkC. Format: biochemical. The method, then:
as §1

Series [4] deals with T4, Ros1 (Homo sapiens, UniProt P08922).
T4 construct: purchased Reaction Biology Corp. (contract assay)
Described as above. Particulars: read-out: The half maximal inhibitory concentration IC50 on the kinases, Ros1. Format: biochemical. The method, then: as §1

Series [5] concerns the target T5, ALK (Homo sapiens, UniProt Q9UM73).
T5 construct: purchased Reaction Biology Corp. (contract assay)
The series is described as above. Format: biochemical. The conditions noted are these: read-out: The half maximal inhibitory concentration IC50 on the kinases, ALK. Here is the method: The inhibitory activities of the compounds on TrkA, TrkC, ALK, Ros1 and other kinases were determined by Reaction Biology Corp. To reaction buffer (20 mM Hepes (pH 7.5), 10 mM MgCl2, 1 mM EGTA, 0.02% Brij35, 0.02 mg/mL BSA, 0.1 mM Na3VO4, 2 mM DTT, 1% DMSO) were sequentially added a certain concentration of substrate, coenzyme factor, kinase and test compound (10 concentrations, 3-fold serial dilutions, DMSO at a final concentration of […]), and the mixture was mixed evenly. The mixture was incubated at room temperature for 20 minutes. To the reaction mixture was added a certain concentration of ^33P-ATP to initiate the reaction, and then the mixture was incubated at room temperature for 120 minutes. The radioactivities of the reactants were determined by the method of filter binding. The final kinase activity was expressed as the ratio of the remaining kinase activity in the test sample to the kinase activity in the DMSO control group. The dose-effect curve was fitted by GraphPad software and the IC50 was calculated.

A short description of series [6]: In vivo cassette pharmacokinetic test in mice. More on the design: species or system male CD-1 mice. Particulars: male, CD-1, mouse, in vivo, po, 3 mg/kg, 2 h. The method, then: The dose of the compounds: […] PO dose of 3 mg/kg, and administration volume of 3 mL/kg.
Series [7] addresses T6, Ba/F3 LMNA-NTRK1-WT stably transfected cell line (Homo sapiens, UniProt P04629).
T6 construct: fused on or other part: P02545 (Prelamin-A/C)
In words: Cell proliferation inhibition (CellTiter-Glo). Format: cell-based. Particulars: 72 hours, read-out: The half maximal inhibitory concentration IC50 against cells, Ba/F3 LMNA-NTRK1-WT. Here is the method:
Adenosine Tri-Phosphate (ATP) is an energy carrier shared by various life activities in nature, and is the smallest unit of energy storage and transfer. The CellTiter-Glo™ cell viability detection kit uses luciferase as the detection substance, and luciferase requires the participation of ATP during the process of luminescence. CellTiter-Glo™ reagent is added to cell culture medium, and the luminescent intensity is measured. The luminescent signal is directly proportional to the amount of ATP in the system, and ATP is positively related to the number of living cells. Therefore, by using the CellTiter-Glo kit to detect ATP content, cell proliferation can be detected. In this assay, the cell line is Ba/F3 LMNA-NTRK1-WT stably transfected cell line, with 5000 cells/well.
IC50 Determination Process:
1. Cell Culture and Inoculation
a) the cells in the logarithmic growth phase were harvested, and counted with a platelet counter. Trypan blue exclusion method was used to detect cell viability to ensure the cell viability was no less than 90%.
b) the cell concentration was adjusted; 90 μL of cell suspension was added respectively into a 96-well plate.
c) the cells in the 96-well plates was cultured under conditions of 37° C., 5% CO2 and 95% humidity overnight.
2. Drug Dilution and Administration
a) 10-fold drug solutions were prepared, the highest concentration was 10 μM, 9 concentrations, 3-fold diluted (refer to Appendix I). 10 μL of each drug solution was added to each well of the 96-well plate seeded with the cells in triplicate.
b) the cells in the 96-well plate added with the drug were cultured under conditions of 37° C., 5% CO2 and 95% humidity for 72 hours, and then CTG (cell proliferation) was performed.
a) CellTiter-Glo™ reagent was thawed, and the cell plate was equilibrated at room temperature for 30 minutes.
b) CellTiter-Glo™ reagent of a same volume was added to each well;
c) the cell plate was shaken on an orbital shaker for 5 minutes to lyse the cells.
d) the cell plate was placed at room temperature for 20 minutes to stabilize the luminescent signal.
e) the luminescent intensity was read.
GraphPad Prism 5.0 software was used to analyze the data, nonlinear S-curve regression was used to fit the data to obtain dose-effect curve, and IC50 value was calculated therefrom.
A general note: Cellular ATP, detected with luciferase, serves as a proxy for viable cell number.

In series [8] the test system is human lung cancer LU-01-0414 subcutaneous xenograft tumor. Put plainly: In vivo efficacy, subcutaneous xenograft tumor of human lung cancer LU-01-0414. Set-up: species or system BALB/c mouse. The conditions noted are these: LU-01-0414 xenograft, 14th day, PO. Here is the method:
Experimental object: evaluation of the in vivo efficacy of test drugs such as WX002A on subcutaneous xenograft tumor of human lung cancer LU-01-0414 in BALB/c mouse model.
Drug preparation: The compounds were all prepared into clear solutions with 5% DMSO+10% solutol+85% water as solvent for administration in the PO (intragastric) group.
Tumor measurement: the tumor diameters were measured with a vernier caliper twice a week. The calculation formula of tumor volume is: V=0.5×a×b^2, wherein a and b represent the long diameter and short diameter of the tumor, respectively. The anti-tumor efficacy of the compounds was evaluated by TGI (%). TGI (%) reflects tumor growth inhibition rate.
Statistical analysis: the statistical analysis was based on the relative tumor volume and tumor weight at the end of the experiment using SPSS software. One-way ANOVA was used to analyze the comparison between multiple groups. […] P<0.05 was considered to indicate significant difference.
Background: A xenograft is tissue or cells of one species grown in another, often human tumour cells in immunodeficient mice.

Series [9] in a line: In vivo pharmacokinetic test in mice. Set-up: species or system male CD-1 mice. The conditions noted are these: PO dose of 10 mL/kg. The method, then: Experimental object: male CD-1 mice aged 7-9 weeks were used as the experimental animals, the LC/MS/MS method was used to determine the drug concentrations in plasma at different time points after single intravenous (IV) and intragastric (PO) administration of the compounds, in vivo pharmacokinetic behaviors of the compounds of the present disclosure in mice were studied, and pharmacokinetic characteristics thereof were evaluated. Drug preparation: The compounds were prepared into clear solutions with 5% DMSO+10% solutol+85% water as solvent for administration in IV (intravenous) group and PO (intragastric). The dose of the compounds: IV dose of 3 mg/kg, and PO dose of […].

Where a name gives a salt, the structure may show the parent alone.

T1 sequence (P04629 33-796): as the sequence (P04629 33-796 G595R) above, with R563G counted along it
T6 sequence (P04629 whole entry, change not shown, the tested form may be a part): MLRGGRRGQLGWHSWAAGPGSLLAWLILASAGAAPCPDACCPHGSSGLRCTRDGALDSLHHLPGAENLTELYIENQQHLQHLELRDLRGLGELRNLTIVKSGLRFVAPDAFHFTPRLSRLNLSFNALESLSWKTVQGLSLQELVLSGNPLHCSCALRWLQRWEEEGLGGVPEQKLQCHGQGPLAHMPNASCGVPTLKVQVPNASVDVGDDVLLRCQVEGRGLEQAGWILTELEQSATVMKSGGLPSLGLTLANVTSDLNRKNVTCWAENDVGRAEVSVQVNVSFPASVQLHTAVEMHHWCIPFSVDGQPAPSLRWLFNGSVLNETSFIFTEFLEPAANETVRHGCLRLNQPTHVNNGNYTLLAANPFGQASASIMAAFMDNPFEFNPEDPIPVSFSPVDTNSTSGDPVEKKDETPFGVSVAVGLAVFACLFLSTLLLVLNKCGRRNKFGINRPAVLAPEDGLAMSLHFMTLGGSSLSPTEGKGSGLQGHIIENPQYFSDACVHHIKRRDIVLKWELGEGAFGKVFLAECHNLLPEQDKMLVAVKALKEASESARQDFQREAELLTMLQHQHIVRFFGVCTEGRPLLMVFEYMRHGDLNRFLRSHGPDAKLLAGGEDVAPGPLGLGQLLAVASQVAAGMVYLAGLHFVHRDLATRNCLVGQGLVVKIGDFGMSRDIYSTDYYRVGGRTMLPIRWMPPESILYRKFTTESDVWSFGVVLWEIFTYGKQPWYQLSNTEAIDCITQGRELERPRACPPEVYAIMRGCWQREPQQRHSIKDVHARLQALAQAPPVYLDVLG
T5 sequence (Q9UM73 19-1620): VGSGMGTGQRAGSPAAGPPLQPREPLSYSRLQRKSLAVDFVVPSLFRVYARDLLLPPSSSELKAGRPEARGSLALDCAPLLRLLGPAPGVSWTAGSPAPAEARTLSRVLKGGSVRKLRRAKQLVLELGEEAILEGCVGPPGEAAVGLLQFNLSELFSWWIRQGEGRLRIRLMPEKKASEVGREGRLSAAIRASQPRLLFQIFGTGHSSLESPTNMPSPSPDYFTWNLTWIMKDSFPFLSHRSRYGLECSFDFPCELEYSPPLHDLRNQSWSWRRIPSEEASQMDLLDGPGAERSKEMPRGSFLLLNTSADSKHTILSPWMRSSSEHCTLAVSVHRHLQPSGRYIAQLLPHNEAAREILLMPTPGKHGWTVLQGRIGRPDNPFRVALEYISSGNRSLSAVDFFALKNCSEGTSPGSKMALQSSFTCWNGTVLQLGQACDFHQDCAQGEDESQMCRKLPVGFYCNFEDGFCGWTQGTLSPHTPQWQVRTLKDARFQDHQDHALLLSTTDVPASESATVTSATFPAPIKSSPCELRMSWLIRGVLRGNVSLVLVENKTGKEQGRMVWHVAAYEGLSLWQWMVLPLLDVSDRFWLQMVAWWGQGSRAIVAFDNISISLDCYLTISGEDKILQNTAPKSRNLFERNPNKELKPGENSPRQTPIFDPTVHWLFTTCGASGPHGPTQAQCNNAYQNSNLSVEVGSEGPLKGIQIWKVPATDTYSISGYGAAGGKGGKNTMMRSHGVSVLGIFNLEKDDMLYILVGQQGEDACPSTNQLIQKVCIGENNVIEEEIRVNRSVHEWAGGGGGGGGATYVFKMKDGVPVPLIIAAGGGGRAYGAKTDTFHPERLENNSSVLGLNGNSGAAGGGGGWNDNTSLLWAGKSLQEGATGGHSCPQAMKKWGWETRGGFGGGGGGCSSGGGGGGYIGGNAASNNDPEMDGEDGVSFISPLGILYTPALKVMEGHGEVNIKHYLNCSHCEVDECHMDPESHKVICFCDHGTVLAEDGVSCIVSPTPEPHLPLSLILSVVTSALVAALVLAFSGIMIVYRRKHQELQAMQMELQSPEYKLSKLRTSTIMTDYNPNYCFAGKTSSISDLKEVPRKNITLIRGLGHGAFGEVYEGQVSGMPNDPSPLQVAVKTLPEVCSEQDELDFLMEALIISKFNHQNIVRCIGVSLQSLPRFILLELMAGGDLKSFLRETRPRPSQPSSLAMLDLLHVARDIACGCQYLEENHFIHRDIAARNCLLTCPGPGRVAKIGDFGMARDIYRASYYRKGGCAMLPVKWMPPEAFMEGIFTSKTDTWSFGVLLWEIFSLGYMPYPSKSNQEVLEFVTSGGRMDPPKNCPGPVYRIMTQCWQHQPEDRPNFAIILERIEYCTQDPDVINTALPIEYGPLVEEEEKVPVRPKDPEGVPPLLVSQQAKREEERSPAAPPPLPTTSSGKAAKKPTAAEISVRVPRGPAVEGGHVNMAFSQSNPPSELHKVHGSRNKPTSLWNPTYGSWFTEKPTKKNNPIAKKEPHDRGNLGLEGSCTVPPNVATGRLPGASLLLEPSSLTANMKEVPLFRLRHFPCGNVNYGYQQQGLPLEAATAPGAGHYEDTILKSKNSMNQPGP

Regarding `O=C1N[C@@H]2CNC[C@@H]2Oc2ncc(F)cc2[C@@H]2CCON2c2ccn3ncc1c3n2` [WX012A], the IC50 in [1] is above 1000 nM.

Consider `O=C1NC2(COC2)COc2ncc(F)cc2[C@@H]2CCON2c2ccn3ncc1c3n2` [WX006B], for which the IC50 in series [2] and in series [1] was above 1000 nM throughout.

`C[C@H]1CNC(=O)c2cnn3ccc(nc23)N2OCC[C@H]2c2cc(F)cnc2O1` [WX005A]: the IC50 was 189 nM in series [3], above 1000 nM in series [1], 531 nM in series [4] and above 1000 nM in [5].

In the case of `CN1C[C@@H]2Oc3ncc(F)cc3[C@@H]3CCON3c3ccn4ncc(c4n3)C(=O)N[C@@H]2C1` [WX009B], the IC50 in series [1] is above 1000 nM.

For the compound `CN1CCN(c2ccc(C(=O)Nc3n[nH]c4ccc(Cc5cc(F)cc(F)c5)cc34)c(NC3CCOCC3)c2)CC1` [RXDX-101, Entrectinib, reference compound], the “drug concentration in brain at 2 h Brain@2 h” value in [6] is recorded as 30 nmol/kg.

With `CC1CCc2ncc(F)cc2C2CCON2c2ccn3ncc(c3n2)C(=O)N1` (stereo not drawn) [WX001 hydrochloride], the IC50 in [1] was determined as 177 nM.

Turning to `O=C1N[C@@H]2COCC[C@@H]2Oc2ncc(F)cc2[C@@H]2CCON2c2ccn3ncc1c3n2` [WX010A], in [1], the IC50 was above 1000 nM.

For the compound `CCN1C[C@@H]2Oc3ncc(F)cc3[C@H]3CCON3c3ccn4ncc(c4n3)C(=O)N[C@@H]2C1` [WX015A], the IC50 in series [1] turned out to be 182 nM. In series [7], the GI50 stood at 65.1 nM.

For `CC(=O)N1CC[C@H]2NC(=O)c3cnn4ccc(nc34)N3OCC[C@H]3c3cc(F)cnc3O[C@H]2C1` [WX014A], the IC50 in series [1] is 1230 nM.

For the compound `O=C1N[C@@H]2COC[C@@H]2Oc2ncc(F)cc2[C@@H]2CCON2c2ccn3ncc1c3n2` [WX008B], the IC50 in series [2] and in [1] was above 1000 nM throughout.

`O=C1N[C@@H]2CNC[C@@H]2Oc2ncc(F)cc2[C@H]2CCON2c2ccn3ncc1c3n2` [WX012B]: the IC50 in series [1] came out at 143 nM. For the same compound, the GI50 in [7] is 259 nM.

Take `CC(=O)N1CC[C@H]2NC(=O)c3cnn4ccc(nc34)N3OCC[C@@H]3c3cc(F)cnc3O[C@H]2C1` [WX014B]: the IC50 in series [1] is 12.8 nM. In addition, in series [7], the GI50 is 80.4 nM.

In the case of `O=C1NC2(CC2)COc2ncc(F)cc2[C@@H]2CCON2c2ccn3ncc1c3n2` [WX002B], in series [1], the IC50 was above 1000 nM.

For `CCN1C[C@@H]2Oc3ncc(F)cc3[C@@H]3CCON3c3ccn4ncc(c4n3)C(=O)N[C@@H]2C1` [WX015B], the IC50 in series [1] is above 1000 nM.

With `O=C1NC2(CC2)COc2ncc(F)cc2C2CCON2c2ccn3ncc1c3n2` (stereo not drawn) [WX002], in series [1], the IC50 came out at 4.37 nM.

In general, T/C refers to the ratio of treated to control. With `C[C@@H](Oc1cc(-c2cnn(C3CCNCC3)c2)cnc1N)c1c(Cl)ccc(F)c1Cl` [Crizotinib, crizotinib, reference compound], the T/C is recorded as 10.32% in series [8] (30 mg/kg QD) and 4.89% in [8] (50 mg/kg QD). The TGI in series [8] (30 mg/kg QD) came to 117.67%; in series [8] (50 mg/kg QD) it was 124.09%.

With `O=C1NC2(CC2)COc2ccc(F)cc2[C@@H]2CCON2c2ccn3ncc1c3n2` [WX003B], the IC50 in series [1] is above 1000 nM.

For `CN1CC[C@H]2NC(=O)c3cnn4ccc(nc34)N3OCC[C@@H]3c3cc(F)cnc3O[C@H]2C1` [WX011A], in series [1], the IC50 was 33.6 nM. Further, in [7], the GI50 worked out at 39.7 nM.

As to `CC1(C)COc2ncc(F)cc2[C@H]2CCON2c2ccn3ncc(c3n2)C(=O)N1` [WX018], the IC50 in [1] was above 1000 nM.

For the compound `C[C@@H]1CCc2ncc(F)cc2[C@H]2CCCN2c2ccn3ncc(c3n2)C(=O)N1` [LOXO-195, reference compound], in [9], the “Area under the curve AUC0-last” value came to 27.344 µM·h and the “Time of peak concentration Tmax” value is 22.8 min. In series [9] (read-out: Peak concentration Cmax), the Cmax was determined as 12.7 µM.

Regarding `O=C1N[C@@H]2CCNC[C@@H]2Oc2ncc(F)cc2[C@H]2CCON2c2ccn3ncc1c3n2` [WX013B], the IC50 in series [1] is 57.2 nM. The GI50 in series [7] came to 216 nM.

As to `C[C@@H]1COc2ncc(F)cc2[C@@H]2CCON2c2ccn3ncc(c3n2)C(=O)N1` [WX004B], the IC50 in [3] is 105 nM; in series [1], above 1000 nM.

Turning to `O=C1N[C@@H]2CCNC[C@@H]2Oc2ncc(F)cc2[C@@H]2CCON2c2ccn3ncc1c3n2` [WX013A], in series [1], the IC50 was above 1000 nM.

In the case of `CCN1CC[C@H]2NC(=O)c3cnn4ccc(nc34)N3OCC[C@H]3c3cc(F)cnc3O[C@H]2C1` [WX016B], in series [1], the IC50 was 220 nM.

For `CN1CC[C@H]2NC(=O)c3cnn4ccc(nc34)N3OCC[C@H]3c3cc(F)cnc3O[C@H]2C1` [WX011B], the IC50 in series [1] turned out to be 270 nM.

As to `CN1C[C@@H]2Oc3ncc(F)cc3[C@H]3CCON3c3ccn4ncc(c4n3)C(=O)N[C@@H]2C1` [WX009A], in [1], the IC50 is 85.1 nM. The GI50 in series [7] came to 76.8 nM.

As for `CCN1CC[C@H]2NC(=O)c3cnn4ccc(nc34)N3OCC[C@@H]3c3cc(F)cnc3O[C@H]2C1` [WX016A], the IC50 in series [1] was determined as 33 nM. Besides, the GI50 in series [7] came out at 65.8 nM.

In the case of `C[C@@H]1COc2ccc(F)cc2[C@@H]2CCON2c2ccn3ncc(c3n2)C(=O)N1` [WX017B], the IC50 in series [1] is above 1000 nM.

For the compound `O=C1N[C@@H]2CCC[C@@H]2Oc2ncc(F)cc2[C@@H]2CCON2c2ccn3ncc1c3n2` [WX007B], the IC50 in [2] is above 1000 nM; in series [1] it was 585 nM.

The values are drawn from US11464780B2, “Pyrazolopyrimidine derivative and use thereof” (Simcere Pharmaceutical Co. Ltd., priority 2018, dated 2022).
